The record followed here is patent publication US11607404B2, “Combinations of RAD51 and PARP inhibitors” (Cyteir Therapeutics, Inc., priority 2019, dated 2023).

Data set [1] concerns Daudi cell line (AID positive). Kind of data set: Primary screening cell killing assay (Cell-Titer Glo, Day 7). Format: cell-based. The settings on record: Homo sapiens. As for the experimental part:
(§1) Primary screening was a phenotypic screen that utilized the synthetic lethal interaction between AID and RAD51 to identify compounds that were both potent and on target. AID expressing cells are dependent upon RAD51 for survival; inhibiting RAD51 in AID positive cells results in a cytotoxic effect.
(§2) The first step was to set up a cell killing assay in the Daudi cell line (AID positive). A 96 well u-bottom plate was prepared by writing the experiment number, plate number, date and initials in the top right corner of the plate lid. With a sterile 300 ml reservoir, and 25 ml serological pipette, evaporation buffer media was pipetted into reservoir in 25 ml increments. Using the liquid handler, 150 ul of evaporation buffer media was pipetted from reservoir into rows A and H, and Columns 1 and 12 of the 96 well u-bottom plate. Cell cultures were counted to obtain the density of cells per ml, and the culture viability. The cell density information was used to obtain 1,000,000 cells from culture using a 5 mL serological pipette into an epi tube. The cell density information from the culture was used to calculate the number of cells and volume of media needed for the assay to seed 1250 cells in 130 ul of media per available culture well in the 96 well u-bottom plate. Rows B through F were used for cells (50 wells in total), with row G left for an empty media control. The calculation was overestimated by 10 mL to account for the dead volume in the 300 ml reservoir. Once the media volume was calculated, the appropriate volume of media was pipetted in 25 mL increments into the 250 mL bottle using a 25 mL serological pipette. The 250 ml bottle was capped tightly, and placed into a 37° C. water bath for 2 minutes. While the culture media was warming, 10 mL of fresh media was pipetted from the 500 mL culture media bottle into a sterile 25 mL reservoir. Using the Eppendorf multichannel pipette, 130 ul of media was piptted from the 25 mL reservoir into row G of the 96 well u-bottom plate. Once the 250 mL bottle of media was warmed, the volume of culture needed was pipetted into the bottle, and mixed gently with a 25 mL serological pipette as to not create bubbles, and then the contents of the bottle were pipetted into a new 300 mL reservoir. Using the liquid handler, 130 ul of culture was pipetted from the 300 mL reservoir into rows B through F of the 96 well u-bottom plate. Once the culture was added, the plate was placed into a 37° C. incubator until the compound master plate was prepared for use.
(§3) Two 96 well u-bottom plates were prepared by writing the master plate name in the upper right corner of the plate lid. Labeling one DMSO master and the other Media Master. The compounds of interest were obtained from the laboratory freezer, and placed into a 25 well storage box with a lid, and set the box aside. The compounds were vortexed after thawing but before use. Using an automatic multichannel pipette, 20 ul of 100% DMSO was pipetted into wells B3-B11 through G3-G11 of the DMSO master plate. For each compound on the master plate, 50 ul of the compound were pipetted in the appropriate well of row 2 (reference plate map to determine appropriate well). A serial dilution was prepared beginning by aspirating 20 ul from row 2 and mixing with row 3, repeating until row 11 was reached. Using the liquid handler, 194 ul of Daudi media was dispensed into wells B2-B11 through G2-G11 of the Media master plate. Using the liquid handler, 6 ul from the DMSO master plate was aspirated and dispensed into the media master plate, mixing 100 ul twice.
Compounds from master plate were then added to the culture plate. The culture plates were removed from the incubator, and set inside the biosafety cabinet. Using a liquid handler, 20 ul from wells B2 to B11 through G2 to G11 of master plate were aspirated, and dispensed into wells B2 to B11 through G2 to G11 of culture plate. This set was continued with each culture plate. […]

The subject of data set [2] is KYSE-510 (Head and Neck). Put plainly: Cell line screen (potency assay). The following applies: Homo sapiens, AICDA expression Negative. It counts as cell-based. The protocol: as §2, §3
(§4) Compounds from master plate were then added to the culture plate. The culture plates were removed from the incubator, and set inside the biosafety cabinet. Using a liquid handler, 20 ul from wells B2 to B11 through G2 to G11 of master plate were aspirated, and dispensed into wells B2 to B11 through G2 to G11 of culture plate. This set was continued with each culture plate. Once the culture plates acquired their 20 ul of compound dilutions, they were placed back into the incubator, until their reads on Day 7 of experiment. Cell death was measured on Day 7 of the experiment using Cell-Titer Glo and a Promega Plate reader. […]

Data set [3] has as its system KYSE-70 (Head and Neck). Kind of data set: Cell line screen (potency assay). Format: cell-based. The following applies: Homo sapiens, AICDA expression Low. The protocol: as §2, §3, §4
Data set [4] relates to ARPE19/HPV16 (HPV Immortalized RPE). Kind of data set: Cell line screen (potency assay). Format: cell-based. The settings on record: ARPE-19, AICDA expression Negative. The protocol:
as §2, §3, §4

Data set [5] relates to CCRF-SB (Leukemia). Kind of data set: Cell line screen (potency assay). Format: cell-based. The following applies: Homo sapiens, AICDA expression High. As for the experimental part: as §2, §3, §4
Data set [6] concerns WSU-FSCCL (Lymphoma). Kind of data set: Cell line screen (potency assay). It counts as cell-based. The settings on record: AICDA expression Negative. The protocol:
as §2, §3, §4

Data set [7] relates to TOV-1120D (Ovary). Kind of data set: Cell line screen (potency assay). It counts as cell-based. The settings on record: AICDA expression Negative. The protocol:
as §2, §3, §4

The test system of data set [8] is OV56 (Ovary). Put plainly: Cell line screen (potency assay). Format: cell-based. The following applies: AICDA expression Low. As for the experimental part:
as §2, §3, §4

Data set [9] deals with KG-1 (Leukemia). Kind of data set: Cell line screen (potency assay). It counts as cell-based. The following applies: AICDA expression Negative. The protocol:
as §2, §3, §4

Data set [10] deals with U-698-M (Lymphoma). Put plainly: Cell line screen (potency assay). The settings on record: AICDA expression High. Format: cell-based. The protocol:
as §2, §3, §4

A short description of data set [11]: Bi-directional Caco-2 permeability. The following applies: human. It counts as in vitro ADME. As for the experimental part: Bi-directional Caco-2 permeability was assayed. Caco-2 cells were seeded onto permeable polycarbonate supports and allowed to differentiate for about 3 weeks prior to being used in the assays. The cells were then exposed to the compounds from either the apical or basolateral sides and incubated at 37 C for up to 90 minutes under light agitation. Compound transport was then measured using LC/MS/MS analysis at 30, 60, and 90 minutes.
A general note: Caco-2 monolayers are a common model of the intestinal barrier.

A short description of data set [12]: Human liver microsome stability. It counts as in vitro ADME. The settings on record: for Human Liver Microsome Stability Half Life: 37° C., 45 minutes incubation; for Human Liver Microsome Stability % QH: percentage of hepatic blood flow. As for the experimental part:
The stability of the claimed compounds was determined in the presences of human liver microsomes. The compounds were incubated with the microsomes at 37° C. for 45 minutes. Samples were analyzed using LC-MS/MS. Data analysis included half-life, clearance rate, and the percentage of hepatic blood flow (% QH) for each of the compounds in the different species.
A general note: Liver microsomes are vesicles of endoplasmic reticulum, rich in cytochrome P450 enzymes.

Data set [13] has as its system WI-38 cells (AID negative). Put plainly: Primary screening cell killing assay repeated in AID negative cells. It counts as cell-based, Human. As for the experimental part: as §1
Percent cell death and EC50 values were calculated by comparing the cell viability of the compound treated wells to the non-treated wells. Normalized RLU values were obtained by subtracting the media well values from each of the wells in the same column, and then dividing that value by the DMSO treated cells values. The percent kill was then calculated by subtracting the normalized RLU value from 1 and multiplying by 100. The average normalized percent kill value and standard error of the mean was then calculated. The kill values were then inputted into Prism with the corresponding standard errors. In Prism a non-linear regression line was plotted with the data points using a semi-log scale, and the EC50 value was calculated.
The activity of the claimed compounds was measured in a variety of cell lines with different expression levels of activation induced cytidine deaminase (AICDA). The potency assay was repeated in all of the listed cell lines and the EC50 values recorded.

A short description of data set [14]: Pharmacokinetic (PK) study. Format: in vivo, Rat. The settings on record: po @ 80 mg/kg (30% PEG400, 10% Vitamin E TPGS in water). The protocol:
PK studies in mice were used to determine the fate of the compounds in a whole organism. Rats were treated with the compounds either orally of via IV at the indicated doses and followed for up to 24 hours. Plasma samples were taken at different time points and analyzed by LC-MS.

[15] abbreviates: 168 h, Daudi cells (AID positive), cell death on Day 7, read-out: AID+ EC50.
The mark [16] stands for this setting: Daudi (Lymphoma), AICDA expression High, read-out: EC50.
The mark [17] stands for this setting: Caco-2, apical to basolateral, read-out: AB Recovery %.
Setting [18] is: Caco-2, basolateral to apical, read-out: BA Recovery %.
The mark [19] stands for this setting: Homo sapiens, WI-38 cells (AID negative), read-out: AID− EC50.
The mark [20] stands for this setting: WI-38 (Normal Human Lung Fibroblast), AICDA expression Negative, read-out: EC50.

Read-outs that look alike come from different tables or passages of the source. Where only a bound is given, the exact number is not on record here.

Regarding `CC(C)OC(=O)N[C@H]1CC[C@H](c2ncc(-c3ccc(NC(=O)NCc4ccccn4)cc3S(=O)(=O)NC(C)(C)C)s2)CC1` [Compound 29], the concentration for a half-maximal effect (EC50) (as a rule, the concentration at which the effect is half-maximal) is at most 0.1 µM in data set [1] (setting [15]); 0.043 µM in [1] (setting [16]); over 10 µM in data set [2]; 4.66 µM in data set [3]; over 10 µM in data set [4]; 1.28 µM in [5]. In addition, the EC50 in data set [6] was 0.067 µM; in [7], 9.17 µM; in data set [8] it was 9.09 µM; in data set [9], over 10 µM; in [10], 0.113 µM; in data set [13] (setting [19]) it was over 1 µM. Besides, the concentration giving a half-maximal response (EC50) in data set [13] (setting [20]) is over 10 µM. The recovery at 90 min in data set [11] (setting [17]) was found to be 93.9%; in data set [11] (setting [18]), 90.9%. Further, the “Human Liver Microsome Stability Half Life” value in [12] is 0.342 h. In addition, the “Human Liver Microsome Stability % QH” value in data set [12] came to 78.8%. Further, the figures for the “F (%) @ 5 mg/kg” value in [14] (Rat Female) and in data set [14] (Rat Male) were 8.39% and 3.69%, respectively. In addition, the “T1/2” value in [14] (Rat Female) was 4.66 h; in data set [14] (Rat Male), 3.97 h.

With `CC(C)OC(=O)N[C@H]1CC[C@H](c2ncc(-c3ccc(NC(=O)NCc4ncccc4F)cc3S(=O)(=O)NC(C)(C)C)s2)CC1` [Compound 31], the concentration for a half-maximal effect (EC50) in data set [1] (setting [15]) is at most 0.1 µM; in [1] (setting [16]), 0.02 µM; in data set [2] it was over 10 µM; in data set [3], 4.7 µM; in [4], over 10 µM; in [5] it was 2.16 µM. Besides, the EC50 was under 0.04 µM in data set [6]; 8.79 µM in data set [9]; 0.031 µM in data set [10]; over 1 µM in data set [13] (setting [19]); over 10 µM in data set [13] (setting [20]). Besides, the recovery at 90 min turned out to be 70.5% in data set [11] (setting [17]) and 92.3% in data set [11] (setting [18]). In addition, the “Human Liver Microsome Stability Half Life” value in [12] was 0.373 h. In data set [12], the “Human Liver Microsome Stability % QH” value was 77.3%. Also, the “F (%) @ 5 mg/kg” value in [14] (Rat Female) is listed as 2.77%; in data set [14] (Rat Male), 1.49%. In addition, the “T1/2” value in data set [14] (Rat Female) worked out at 4.75 h; in data set [14] (Rat Male), 3.79 h.
